Like-named read-outs stand apart in the source and are kept apart here. One block for each compound: values may come before it.
Tests used:
[1] = Solubility in perfluoro(tributylamine)
[2] = assuming 1:1 stoichiometry; cited from earlier work
[3] = assuming 1:1 stoichiometry; cited from earlier work; remark: listed apart in the source
[4] = Extraction of lipophilic acids into fluorous membranes, 1H NMR; format: physicochemical; settings: aqueous buffered solutions of 10^−3.5 M acid; 1H NMR of membrane
[5] = cited from earlier work
[6] = cited from earlier work; remark: listed apart in the source
[7] = cited from earlier work; remark: listed apart in the source
[8] = PFPHP saturated with substance, salts judged by resistance of soaked porous PTFE membranes

solubility in PFPHP (physchem): poorly soluble
Compound: S=C(NCc1cccc(CNC(=S)Nc2ccccc2)c1)Nc1ccccc1

solubility in PFPHP (physchem): not soluble enough
Compound: FC(F)(F)c1cc([B-](c2cc(C(F)(F)F)cc(C(F)(F)F)c2)(c2cc(C(F)(F)F)cc(C(F)(F)F)c2)c2cc(C(F)(F)F)cc(C(F)(F)F)c2)cc(C(F)(F)F)c1.[Na+]

Compound: OC(c1cccc(C(O)(C(F)(F)F)C(F)(F)F)c1)(C(F)(F)F)C(F)(F)F
solubility in perfluoro(tributylamine) [1]: poorly soluble | solubility in PFPHP (physchem; [8]): poorly soluble

Compound: FC(OC(F)(F)C(F)(OC(F)(F)C(F)(OC(F)(F)C(F)(OC(F)(F)C(F)(F)C(F)(F)F)C(F)(F)F)C(F)(F)F)C(F)(F)F)C(F)(F)F (centres unmarked) [2H-perfluoro-5,8,11-trimethyl-3,6,9,12-tetraoxapentadecane]
formal association constant with Li^+ [2]: 1.5 M⁻¹ | formal association constant with Na^+ [3]: 2.3 M⁻¹

solubility in PFPHP (physchem): poorly soluble
Compound: CCCCCCCCC(CCCCCCCC)CN=c1cc2oc3cc(N(CC)CC)ccc3nc-2c2ccccc12 [Chromoionophroes III]

solubility in PFPHP (physchem): poorly soluble
Compound: CCCCC(CCCC)OC(=O)CCCCCCCCCCOC(=O)Cc1ccc(N=c2cc3oc4cc(N(C)C)ccc4nc-3c3ccccc23)cc1 [Chromoionophroes II]

solubility in PFPHP (physchem): poorly soluble
Compound: CCCCCCCCCCCCCCCCCC(=O)N=c1cc2oc3cc(N(CC)CC)ccc3nc-2c2ccccc12 [Chromoionophroes I]

Compound: CCCCCCCCCCCC[N+](CCCCCCCCCCCC)(CCCCCCCCCCCC)CCCCCCCCCCCC.Clc1ccc([B-](c2ccc(Cl)cc2)(c2ccc(Cl)cc2)c2ccc(Cl)cc2)cc1 [ETH 500, tetradecylammonim tetrakis[p-chlorophenyl]borate]
solubility in PFPHP (physchem; [8]): not sufficiently soluble

solubility in PFPHP (physchem): poorly soluble
Compound: CCCCCCCCCCCCCCCCCCOC(=O)c1ccncc1 [Hydrogen Ionophre IV]

Compound: C[C@H](CCC(=O)O)[C@H]1CC[C@H]2[C@@H]3[C@H](O)C[C@@H]4C[C@H](O)CC[C@]4(C)[C@H]3C[C@H](O)[C@]12C [cholic acid]
extraction into fluorous membranes [4]: not extracted to any significant amount

Compound: FC(F)(F)C(F)(F)C(F)(F)C(F)(F)C(F)(F)C(F)(F)c1cc([B-](c2cc(C(F)(F)C(F)(F)C(F)(F)C(F)(F)C(F)(F)C(F)(F)F)cc(C(F)(F)C(F)(F)C(F)(F)C(F)(F)C(F)(F)C(F)(F)F)c2)(c2cc(C(F)(F)C(F)(F)C(F)(F)C(F)(F)C(F)(F)C(F)(F)F)cc(C(F)(F)C(F)(F)C(F)(F)C(F)(F)C(F)(F)C(F)(F)F)c2)c2cc(C(F)(F)C(F)(F)C(F)(F)C(F)(F)C(F)(F)C(F)(F)F)cc(C(F)(F)C(F)(F)C(F)(F)C(F)(F)C(F)(F)C(F)(F)F)c2)cc(C(F)(F)C(F)(F)C(F)(F)C(F)(F)C(F)(F)C(F)(F)F)c1.[Na+] [compound 2]
solubility (physchem; organic solvent or mixture): 1400 µM

solubility in PFPHP (physchem): poorly soluble
Compound: c1ccc(CSCc2ccccc2)cc1 [dibenzyl sulfide]

extraction into fluorous membranes [4]: not extracted to any significant amount
Compound: CCCCCCCC(=O)O [octanoic acid]

Compound: FC(F)(F)C(F)(F)C(F)(F)C(F)(F)C(F)(F)N(C(F)(F)C(F)(F)C(F)(F)C(F)(F)C(F)(F)F)C(F)(F)C(F)(F)C(F)(F)C(F)(F)C(F)(F)F [perfluorotripentylamine]
formal pKa [5]: smaller than −0.5 | association with any ion tested ([5]; inorganic monocations): does not undergo measurable association

Compound: CCCC[N+](CCCC)(CCCC)CCCC.F[B-](F)(F)F [tetrabutyl-ammonium tetrafluoroborate]
log Kip ([6]; in α,α,α-trifluorotoluene): 5.4

Compound: CCCCCCCC[N+](CCCCCCCC)(CCCCCCCC)CCCCCCCC.[Cl-] [tetraoctylammonium chloride]
log Kip ([6]; in 98.2 toluene-nitrobenzene): 14.9

solubility in PFPHP (physchem): poorly soluble
Compound: CCCCCCCCCCCCN(CCCCCCCCCCCC)CCCCCCCCCCCC [tridodecylamine]

solubility in PFPHP (physchem): not soluble enough
Compound: CCCCCCCCCCCC[N+](C)(CCCCCCCCCCCC)CCCCCCCCCCCC.[Cl-] [tridodecylmethylammonium chloride]

Compound: CC(C)[C@@H]1NC(=O)[C@H](C)OC(=O)[C@@H](C(C)C)NC(=O)[C@@H](C(C)C)OC(=O)[C@H](C(C)C)NC(=O)[C@H](C)OC(=O)[C@@H](C(C)C)NC(=O)[C@@H](C(C)C)OC(=O)[C@H](C(C)C)NC(=O)[C@H](C)OC(=O)[C@@H](C(C)C)NC(=O)[C@@H](C(C)C)OC1=O [valinomycin]
solubility in perfluoro(tributylamine) [1]: poorly soluble | solubility in PFPHP (physchem; [8]): poorly soluble | log K^potK,Na ([7]; after exposure to an extract of urine): −3.1 | log K^potK,Na ([7]; before exposure to an extract of urine): −3.9

Compound: tetrakis-(decyl)ammonium tetraphenylborate
log Kip ([6]; in cyclohexane): 14.2

From patent US8765060B2, “Chemical sensor” (Regents of the University of Minnesota, priority 2005, dated 2014)
